We go through 1 compound from publication PMC5218480 (PLoS ONE, 2017).

This assay deals with MV-4-11 cells. As to the kind of experiment: Gene expression microarray analysis (Affymetrix PrimeView) and GSEA. Type of assay: cell-based, human. The arrangement: RFU PODN (11730768_x_at) / Fold change /veh PODN (11730768_x_at) / RFU LINC00158 (11744669_a_at) / Fold change /veh LINC00158 (11744669_a_at) / RFU DUSP10 (11751237_a_at) / Fold change /veh DUSP10 (11751237_a_at) / RFU ID3 (11757404_x_at) / Fold change /veh ID3 (11757404_x_at) / RFU PLEKHG5 (11737974_s_at) / Fold change /veh PLEKHG5 (11737974_s_at) / RFU LRRC4B (11730491_at) / Fold change /veh LRRC4B (11730491_at) / RFU GIMAP4 (11747438_a_at) / Fold change /veh GIMAP4 (11747438_a_at) / RFU KRT8 (11758183_x_at) / Fold change /veh KRT8 (11758183_x_at) / RFU CNN1 (11734310_a_at) / Fold change /veh CNN1 (11734310_a_at) / RFU VPS37D (11726825_at) / Fold change /veh VPS37D (11726825_at) / RFU C10orf10 (11716522_x_at) / Fold change /veh C10orf10 (11716522_x_at) / RFU KIR2DL2 /// KIR2DL4 /// KIR2DL5A /// KIR2DL5B /// KIR2DS1 /// KIR2DS2 /// KIR2DS3 /// KIR2DS4 /// KIR3DL3 /// KIR3DL3 /// KIR3DS1 (11738374_at) / Fold change /veh KIR2DL2 /// KIR2DL4 /// KIR2DL5A /// KIR2DL5B /// KIR2DS1 /// KIR2DS2 /// KIR2DS3 /// KIR2DS4 /// KIR3DL3 /// KIR3DL3 /// KIR3DS1 (11738374_at) / RFU C1QL1 (11718748_at) / Fold change /veh C1QL1 (11718748_at) / RFU TMPRSS4 (11747572_a_at) / Fold change /veh TMPRSS4 (11747572_a_at) / RFU HAMP (11756126_x_at) / Fold change /veh HAMP (11756126_x_at) / RFU RNFT2 (11725882_a_at) / Fold change /veh RNFT2 (11725882_a_at) / RFU NR4A2 (11747474_a_at) / Fold change /veh NR4A2 (11747474_a_at) / RFU ABCC12 (11746883_a_at) / Fold change /veh ABCC12 (11746883_a_at) / RFU TMEM136 (11760407_x_at) / Fold change /veh TMEM136 (11760407_x_at) / RFU CLDN22 /// WWC2 (11732394_at) / Fold change /veh CLDN22 /// WWC2 (11732394_at) / RFU HLA-DPB1 (11760878_x_at) / Fold change /veh HLA-DPB1 (11760878_x_at) / RFU SPINT1 (11716480_a_at) / Fold change /veh SPINT1 (11716480_a_at) / RFU GAP43 (11754022_s_at) / Fold change /veh GAP43 (11754022_s_at) / RFU A4GNT (11735810_at) / Fold change /veh A4GNT (11735810_at) / RFU PRB3 (11715151_x_at) / Fold change /veh PRB3 (11715151_x_at) / RFU TUBB4B (11761932_at) / Fold change /veh TUBB4B (11761932_at) / RFU CAPN14 (11732068_a_at) / Fold change /veh CAPN14 (11732068_a_at) / RFU TMCC2 (11721928_a_at) / Fold change /veh TMCC2 (11721928_a_at) / RFU IRGQ (11745062_a_at) / Fold change /veh IRGQ (11745062_a_at) / RFU FAM174B (11720279_a_at) / Fold change /veh FAM174B (11720279_a_at) / RFU TMPRSS4 (11748680_a_at) / Fold change /veh TMPRSS4 (11748680_a_at) / RFU FAM212B (11763350_a_at) / Fold change /veh FAM212B (11763350_a_at) / RFU PLEKHG5 (11743358_a_at) / Fold change /veh PLEKHG5 (11743358_a_at) / RFU ZSCAN30 (11745921_a_at) / Fold change /veh ZSCAN30 (11745921_a_at) / RFU CMKLR1 (11741424_a_at) / Fold change /veh CMKLR1 (11741424_a_at) / RFU LOC101060620 /// MAPK8IP1 (11723275_at) / Fold change /veh LOC101060620 /// MAPK8IP1 (11723275_at) / RFU SPTSSB (11747773_x_at) / Fold change /veh SPTSSB (11747773_x_at) / RFU PRSS12 (11739890_at) / Fold change /veh PRSS12 (11739890_at) / RFU BIN1 (11741810_x_at) / Fold change /veh BIN1 (11741810_x_at) / RFU WNT11 (11732464_a_at) / Fold change /veh WNT11 (11732464_a_at) / RFU C10orf10 (11716521_a_at) / Fold change /veh C10orf10 (11716521_a_at) / RFU C5orf56 (11738089_at) / Fold change /veh C5orf56 (11738089_at) / RFU CYB561 (11721691_x_at) / Fold change /veh CYB561 (11721691_x_at) / RFU ANKRD19P (11752326_a_at) / Fold change /veh ANKRD19P (11752326_a_at) / RFU OR2T12 /// OR2T33 /// OR2T8 (11738714_s_at) / Fold change /veh OR2T12 /// OR2T33 /// OR2T8 (11738714_s_at) / RFU VCAN (11748164_a_at) / Fold change /veh VCAN (11748164_a_at) / RFU JSRP1 (11732532_at) / Fold change /veh JSRP1 (11732532_at) / RFU KRTAP10-11 (11738290_x_at) / Fold change /veh KRTAP10-11 (11738290_x_at) / RFU MYO3A (11730013_a_at) / Fold change /veh MYO3A (11730013_a_at) / RFU EBF3 (11725865_a_at) / Fold change /veh EBF3 (11725865_a_at) / RFU CAMK2N1 (11719241_x_at) / Fold change /veh CAMK2N1 (11719241_x_at) / RFU C5orf56 (11738088_a_at) / Fold change /veh C5orf56 (11738088_a_at) / RFU OLFML3 (11715873_a_at) / Fold change /veh OLFML3 (11715873_a_at) / RFU LOC100653217 /// NTM (11731650_a_at) / Fold change /veh LOC100653217 /// NTM (11731650_a_at) / RFU MAPK11 (11762145_a_at) / Fold change /veh MAPK11 (11762145_a_at) / RFU FIZ1 (11724087_x_at) / Fold change /veh FIZ1 (11724087_x_at) / RFU OASL (11726364_x_at) / Fold change /veh OASL (11726364_x_at) / RFU SOX15 (11748057_x_at) / Fold change /veh SOX15 (11748057_x_at) / RFU CD79A (11719716_a_at) / Fold change /veh CD79A (11719716_a_at) / RFU HIST1H1D (11736915_at) / Fold change /veh HIST1H1D (11736915_at) / RFU CASKIN2 (11723855_a_at) / Fold change /veh CASKIN2 (11723855_a_at) / RFU LOC730098 (11760151_x_at) / Fold change /veh LOC730098 (11760151_x_at) / RFU OR4N2 (11742367_at) / Fold change /veh OR4N2 (11742367_at) / RFU PRRT2 (11749266_a_at) / Fold change /veh PRRT2 (11749266_a_at) / RFU SNX32 (11753110_a_at) / Fold change /veh SNX32 (11753110_a_at) / RFU CDHR5 (11726645_a_at) / Fold change /veh CDHR5 (11726645_a_at) / RFU RCAN1 (11760418_a_at) / Fold change /veh RCAN1 (11760418_a_at) / RFU FAM167A (11723789_a_at) / Fold change /veh FAM167A (11723789_a_at) / RFU FAM26E (11764081_at) / Fold change /veh FAM26E (11764081_at) / RFU ISYNA1 (11749810_s_at) / Fold change /veh ISYNA1 (11749810_s_at) / RFU ACY1 (11761880_at) / Fold change /veh ACY1 (11761880_at) / RFU 11764098_at / Fold change /veh 11764098_at / RFU SAMD14 (11745864_x_at) / Fold change /veh SAMD14 (11745864_x_at) / RFU NPB (11741838_a_at) / Fold change /veh NPB (11741838_a_at) / RFU TMPRSS6 (11731388_a_at) / Fold change /veh TMPRSS6 (11731388_a_at) / RFU KRTAP10-2 (11738614_at) / Fold change /veh KRTAP10-2 (11738614_at) / RFU ARHGAP8 /// PRR5-ARHGAP8 (11727945_x_at) / Fold change /veh ARHGAP8 /// PRR5-ARHGAP8 (11727945_x_at) / RFU KRTAP5-7 /// NADSYN1 (11734609_at) / Fold change /veh KRTAP5-7 /// NADSYN1 (11734609_at) / RFU RASL12 (11751679_a_at) / Fold change /veh RASL12 (11751679_a_at) / RFU CDKN2B (11736163_a_at) / Fold change /veh CDKN2B (11736163_a_at) / RFU PRF1 (11729649_at) / Fold change /veh PRF1 (11729649_at) / RFU, ZNF638 /// ZNF638-IT1 / Fold change vs veh, ZNF638 /// ZNF638-IT1 / RFU, PANK3 / Fold change vs veh, PANK3 / RFU, SH3YL1 / Fold change vs veh, SH3YL1 / RFU, ZEB2 / Fold change vs veh, ZEB2 / RFU, NRIP1 / Fold change vs veh, NRIP1 / RFU, PTTG1IP / Fold change vs veh, PTTG1IP / RFU, CAPN2 / Fold change vs veh, CAPN2 / RFU, MED14 / Fold change vs veh, MED14 / RFU, SNORA58 / Fold change vs veh, SNORA58 / RFU, C1orf63 / Fold change vs veh, C1orf63 / RFU, LRRFIP1 / Fold change vs veh, LRRFIP1 / RFU, NDUFAF7 / Fold change vs veh, NDUFAF7 / RFU, SLC12A2 / Fold change vs veh, SLC12A2 / RFU, IBTK / Fold change vs veh, IBTK / RFU, ESF1 / Fold change vs veh, ESF1 / Fold change vs veh, TMEM50B / RFU, TAOK1 / Fold change vs veh, TAOK1 / RFU, ACBD3 / Fold change vs veh, ACBD3 / RFU, TMA16 / Fold change vs veh, TMA16 / RFU, RWDD3 / Fold change vs veh, RWDD3 / RFU, BCAT1 / Fold change vs veh, BCAT1 / RFU, EDEM3 / Fold change vs veh, EDEM3 / RFU, TMEM33 / Fold change vs veh, TMEM33 / RFU, WDR75 / Fold change vs veh, WDR75 / RFU, AHCTF1 / Fold change vs veh, AHCTF1 / RFU, TFRC / Fold change vs veh, TFRC / RFU, ZDHHC17 / Fold change vs veh, ZDHHC17 / RFU, NOM1 / Fold change vs veh, NOM1 / RFU, ARL8B / Fold change vs veh, ARL8B / RFU, ZBTB11 / Fold change vs veh, ZBTB11 / RFU, TAMM41 / Fold change vs veh, TAMM41 / RFU, KIAA1704 /// LOC100996395 / Fold change vs veh, KIAA1704 /// LOC100996395 / RFU, ING1 / Fold change vs veh, ING1 / RFU, TRMT61B / Fold change vs veh, TRMT61B / RFU, FUBP3 / Fold change vs veh, FUBP3 / RFU, TP53 / Fold change vs veh, TP53 / RFU, TNKS2 / Fold change vs veh, TNKS2 / RFU, ZFP14 / Fold change vs veh, ZFP14 / RFU, ACTR2 / Fold change vs veh, ACTR2 / RFU, PPP3R1 / Fold change vs veh, PPP3R1 / RFU, PIK3R1 / Fold change vs veh, PIK3R1 / RFU, HNRNPA1 / Fold change vs veh, HNRNPA1 / RFU, RNF170 / Fold change vs veh, RNF170 / RFU, ZNF28 / Fold change vs veh, ZNF28 / RFU, RNGTT / Fold change vs veh, RNGTT / RFU, OGT / Fold change vs veh, OGT / RFU, BRD1 / Fold change vs veh, BRD1 / RFU, MARS / Fold change vs veh, MARS / RFU, ZNF655 / Fold change vs veh, ZNF655 / RFU, FAHD1 / Fold change vs veh, FAHD1 / RFU, BDP1 / Fold change vs veh, BDP1 / RFU, LRRCC1 / Fold change vs veh, LRRCC1 / RFU, ARID1A / Fold change vs veh, ARID1A / RFU, ZNF146 / Fold change vs veh, ZNF146 / RFU, ZNF330 / Fold change vs veh, ZNF330 / RFU, GPN3 / Fold change vs veh, GPN3 / RFU, C9orf123 / Fold change vs veh, C9orf123 / RFU, N4BP2L2 / Fold change vs veh, N4BP2L2 / RFU, ARFIP1 / Fold change vs veh, ARFIP1 / RFU, FAM179B / Fold change vs veh, FAM179B / RFU, BCL10 / Fold change vs veh, BCL10 / RFU, UHRF1BP1L / Fold change vs veh, UHRF1BP1L / RFU, BET1 / Fold change vs veh, BET1 / RFU, CNOT2 / Fold change vs veh, CNOT2 / RFU, ZNF268 / Fold change vs veh, ZNF268 / Fold change vs veh, ZNF507 / RFU, DGCR2 / Fold change vs veh, DGCR2 / RFU, WDSUB1 / Fold change vs veh, WDSUB1 / Fold change vs veh, HSP90B1 /// MIR3652 / RFU, ADSS / Fold change vs veh, ADSS / RFU, GK / Fold change vs veh, GK / RFU, ZNF148 / Fold change vs veh, ZNF148 / RFU, TAF9 / Fold change vs veh, TAF9 / RFU, SLC1A5 / Fold change vs veh, SLC1A5 / RFU, SLMO2 / Fold change vs veh, SLMO2 / RFU, ABCC4 / Fold change vs veh, ABCC4 / RFU, LOC101060439 /// RAP1B / Fold change vs veh, LOC101060439 /// RAP1B / RFU, RFX7 / Fold change vs veh, RFX7 / RFU, GTPBP10 / Fold change vs veh, GTPBP10 / RFU, CNEP1R1 / Fold change vs veh, CNEP1R1 / RFU, BIVM-ERCC5 /// ERCC5 / Fold change vs veh, BIVM-ERCC5 /// ERCC5 / RFU, ILF3 / Fold change vs veh, ILF3 / RFU 11762660_at / Fold change /veh 11762660_at / RFU VCAN (11757783_s_at) / Fold change /veh VCAN (11757783_s_at) / RFU DDX43 (11728927_at) / Fold change /veh DDX43 (11728927_at) / RFU KRT8 (11758188_x_at) / Fold change /veh KRT8 (11758188_x_at) / RFU NKD1 (11759106_at) / Fold change /veh NKD1 (11759106_at) / RFU SRD5A1 (11742802_a_at) / Fold change /veh SRD5A1 (11742802_a_at) / RFU TPSAB1 /// TPSB2 (11721975_s_at) / Fold change /veh TPSAB1 /// TPSB2 (11721975_s_at) / RFU GSTM3 (11746129_a_at) / Fold change /veh GSTM3 (11746129_a_at) / RFU IL23R (11737362_x_at) / Fold change /veh IL23R (11737362_x_at) / RFU TMEM51 (11727254_a_at) / Fold change /veh TMEM51 (11727254_a_at) / RFU PIWIL2 (11732686_x_at) / Fold change /veh PIWIL2 (11732686_x_at) / RFU ORM1 (11744905_x_at) / Fold change /veh ORM1 (11744905_x_at) / RFU CCDC152 (11743942_at) / Fold change /veh CCDC152 (11743942_at) / RFU ECM1 (11717891_a_at) / Fold change /veh ECM1 (11717891_a_at) / RFU IL23R (11748794_a_at) / Fold change /veh IL23R (11748794_a_at) / RFU TNFAIP8L3 (11732012_x_at) / Fold change /veh TNFAIP8L3 (11732012_x_at) / RFU MBOAT4 (11741988_at) / Fold change /veh MBOAT4 (11741988_at) / RFU 11764193_at / Fold change /veh 11764193_at / RFU TMEM53 (11763286_at) / Fold change /veh TMEM53 (11763286_at) / RFU MAGEB2 (11727129_at) / Fold change /veh MAGEB2 (11727129_at) / RFU TMEM200A (11744735_a_at) / Fold change /veh TMEM200A (11744735_a_at) / RFU CCDC152 (11751479_a_at) / Fold change /veh CCDC152 (11751479_a_at) / RFU FAM211A (11726209_a_at) / Fold change /veh FAM211A (11726209_a_at) / RFU RGS16 (11746705_a_at) / Fold change /veh RGS16 (11746705_a_at) / RFU VCAN (11755009_s_at) / Fold change /veh VCAN (11755009_s_at) / RFU RHOB (11743442_s_at) / Fold change /veh RHOB (11743442_s_at) / RFU RGS16 (11720943_a_at) / Fold change /veh RGS16 (11720943_a_at) / RFU RGS16 (11720944_at) / Fold change /veh RGS16 (11720944_at) / RFU, VPS4B / Fold change vs veh, VPS4B / RFU, CREB1 / Fold change vs veh, CREB1 / RFU, DNAJC13 / Fold change vs veh, DNAJC13 / RFU, GNAQ / Fold change vs veh, GNAQ / RFU, CDK5R1 / Fold change vs veh, CDK5R1 / RFU, ZRANB3 / Fold change vs veh, ZRANB3 / RFU, CUL4A / Fold change vs veh, CUL4A / RFU, CCNY / Fold change vs veh, CCNY / RFU, UFL1 / Fold change vs veh, UFL1 / RFU, COG3 / Fold change vs veh, COG3 / RFU, DIAPH2 / Fold change vs veh, DIAPH2 / RFU, SKA2 / Fold change vs veh, SKA2 / RFU, AFF3 / Fold change vs veh, AFF3 / RFU, LMF1 / Fold change vs veh, LMF1 / RFU, IPO11 / Fold change vs veh, IPO11 / RFU, DFFB / Fold change vs veh, DFFB / RFU, FOXP1 / Fold change vs veh, FOXP1 / RFU, CARD8 / Fold change vs veh, CARD8 / RFU, STRN3 / Fold change vs veh, STRN3 / RFU, ADK / Fold change vs veh, ADK / RFU, RASSF2 / Fold change vs veh, RASSF2 / RFU, WIPF1 / Fold change vs veh, WIPF1 / RFU, LARP1B / Fold change vs veh, LARP1B / RFU, RASA1 / Fold change vs veh, RASA1 / RFU, RB1 / Fold change vs veh, RB1 / RFU, PPFIA1 / Fold change vs veh, PPFIA1 / RFU, MAT2A / Fold change vs veh, MAT2A / RFU, CCT5 / Fold change vs veh, CCT5 / RFU, WDR92 / Fold change vs veh, WDR92 / RFU, CUX1 / Fold change vs veh, CUX1 / RFU, TTC7A / Fold change vs veh, TTC7A / RFU, TMEM135 / Fold change vs veh, TMEM135 / RFU, DEPTOR / Fold change vs veh, DEPTOR / RFU, CPM / Fold change vs veh, CPM / RFU, DNAJB6 / Fold change vs veh, DNAJB6 / RFU, CACNA2D3 / Fold change vs veh, CACNA2D3 / RFU, DTX4 / Fold change vs veh, DTX4 / RFU, TFCP2 / Fold change vs veh, TFCP2 / RFU, GMCL1 /// GMCL1P1 / Fold change vs veh, GMCL1 /// GMCL1P1 / RFU, AEBP2 / Fold change vs veh, AEBP2 / RFU, SNHG1 /// SNORD22 /// SNORD25 /// SNORD26 /// SNORD27 /// SNORD28 /// SNORD29 /// SNORD31 / Fold change vs veh, SNHG1 /// SNORD22 /// SNORD25 /// SNORD26 /// SNORD27 /// SNORD28 /// SNORD29 /// SNORD31 / Fold change (Aza/veh), C12orf56 (ProbeSet 11735607_a_at) / Fold change (ACY-1035/veh), C12orf56 (ProbeSet 11735607_a_at) / Fold change (Aza/veh), FGFR1OP (ProbeSet 11751329_s_at) / Fold change (ACY-1035/veh), FGFR1OP (ProbeSet 11751329_s_at) / Fold change (Aza/veh), VPS36 (ProbeSet 11739960_a_at) / Fold change (ACY-1035/veh), VPS36 (ProbeSet 11739960_a_at) / RFU SYPL1 (11715823_x_at) / Fold change /veh SYPL1 (11715823_x_at) / RFU IGFBP7 (11715501_s_at) / Fold change /veh IGFBP7 (11715501_s_at) / RFU REEP3 (11722064_at) / Fold change /veh REEP3 (11722064_at) / RFU IGLL1 (11728026_x_at) / Fold change /veh IGLL1 (11728026_x_at): dose or concentration left out as unconfirmed. To be noted: ProbeSet 11717523_x_at; LIST B.

As to `Nc1ncn([C@@H]2O[C@H](CO)[C@@H](O)[C@H]2O)c(=O)n1` [azacitidine], the “Fold change vs veh, TMEM50B” value is recorded as 0.85.
